Measured values from patent US10844052B2, “LLS compounds for treatment of cancer” (THE REGENTS OF THE UNIVERSITY OF CALIFORNIA, priority 2016, dated 2020).

Tests used:
[1] = system: 22RV1 prostate cancer cells; experiment: Cell viability of prostate cancer 22RV1 cells after 72 hours treatment; type: cell-based; conditions: Homo sapiens
[2] = system: PC3 prostate cancer cells; experiment: Cell viability of prostate cancer PC3 cells after 72 hours treatment; type: cell-based; conditions: Homo sapiens; for viability at 2.5 µM: PC-3, 2.5 μM; for viability at 5 µM: PC-3, 5 μM; for viability at 10 µM: PC-3, 10 μM; for viability at 20 µM: PC-3, 20 μM
Procedure: Effects of compounds LLS42-LLS80 on the viability of PC3 prostate cancer cells after 72 hours of treatment are shown in Table 2 below: […]

Compound	viability at 2.5 µM [1] [%]	viability at 5 µM [1] [%]	viability at 10 µM [1] [%]	viability at 2.5 µM [2] [%]	viability at 5 µM [2] [%]	viability at 10 µM [2] [%]	viability at 20 µM [2] [%]
CN1CCN(c2ccc(-c3nc4cc(C(CC(N)=O)NCC5CCCCC5)ccc4n3Cc3ccc(OC(F)(F)F)cc3)cc2)CC1 (stereo not drawn) [LLS90, 3-((cyclohexylmethyl)amino)-3-(2-(4-(4-methylpiperazin-1-yl)phenyl)-1-(4-(trifluoromethoxy)benzyl)-1H-benzo[d]imidazol-5-yl)propanamide]	1	0	0	–	–	–	–
CN(C)CCCOc1ccc(-c2nc3cc(C(CC(N)=O)NCC4CCCCC4)ccc3n2Cc2ccc(Br)cc2)cc1 (stereo not drawn) [LLS95, 3-(1-(4-bromobenzyl)-2-(4-(3-(dimethylamino)propoxy)phenyl)-1H-benzo[d]imidazol-5-yl)-3-((cyclohexylmethyl)amino)propanamide]	22	1	0	–	–	–	–
NC(=O)CC(NCc1ccc(F)c(F)c1)c1ccc2c(c1)nc(-c1ccc(N(CCO)CCO)cc1)n2Cc1ccc(Cl)c(Cl)c1 (stereo not drawn) [LLS83, 3-(2-(4-(bis(2-hydroxyethyl)amino)phenyl)-1-(3,4-dichlorobenzyl)-1H-benzo[d]imidazol-5-yl)-3-((3,4-difluorobenzyl)amino)propanamide]	20	1	0	–	–	–	–
CN(C)CCCOc1ccc(-c2nc3cc(C(CC(N)=O)NCc4ccc(Cl)c(Cl)c4)ccc3n2Cc2ccc(Cl)c(Cl)c2)cc1 (stereo not drawn) [LLS85, 3-(1-(3,4-dichlorobenzyl)-2-(4-(3-(dimethylamino)propoxy)phenyl)-1H-benzo[d]imidazol-5-yl)-3-((3,4-dichlorobenzyl)amino)propanamide]	65	1	0	–	–	–	–
NC(=O)CC(NCC1CCCCC1)c1ccc2c(c1)nc(-c1cccc(OCCN3CCOCC3)c1)n2Cc1ccc(OC(F)(F)F)cc1 (stereo not drawn) [LLS91, 3-((cyclohexylmethyl)amino)-3-(2-(3-(2-morpholinoethoxy)phenyl)-1-(4-(trifluoromethoxy)benzyl)-1H-benzo[d]imidazol-5-yl)propanamide]	33	7	0	–	–	–	–
NC(=O)CC(NCc1ccc(Cl)c(Cl)c1)c1ccc2c(c1)nc(-c1ccc(N(CCO)CCO)cc1)n2Cc1cccc2ccccc12 (stereo not drawn) [LLS102, 3-(2-(4-(bis(2-hydroxyethyl)amino)phenyl)-1-(naphthalen-1-ylmethyl)-1H-benzo[d]imidazol-5-yl)-3-((3,4-dichlorobenzyl)amino)propanamide]	23	0	0	–	–	–	–
NC(=O)CC(NCc1ccc2[nH]ncc2c1)c1ccc2c(c1)nc(-c1ccc(N(CCO)CCO)cc1)n2Cc1ccc(C(F)(F)F)cc1 (stereo not drawn) [LLS77, 3-(((1H-indazol-5-yl)methyl)amino)-3-(2-(4-(bis(2-hydroxyethyl)amino)phenyl)-1-(4-(trifluoromethyl)benzyl)-1H-benzo[d]imidazol-5-yl)propanamide]	–	–	–	99	100	101	103
COc1cc(CNC(CC(N)=O)c2ccc3c(c2)nc(-c2ccc(N(CCO)CCOC(C)=O)cc2)n3C(C)C)cc(Br)c1OC (stereo not drawn) [LLS43, 2-((4-(5-(3-amino-1-((3-bromo-4,5-dimethoxybenzyl)amino)-3-oxopropyl)-1-isopropyl-1H-benzo[d]imidazol-2-yl)phenyl)(2-hydroxyethyl)amino)ethyl Acetate]	–	–	–	105	102	101	105
NC(=O)CC(NCc1ccc(Cl)c(Cl)c1)c1ccc2c(c1)nc(-c1ccc(N3CCOCC3)cc1)n2CCCN1CCCCC1 (stereo not drawn) [LLS65, 3-((3,4-dichlorobenzyl)amino)-3-(2-(4-morpholinophenyl)-1-(3-(piperidin-1-yl)propyl)-1H-benzo[d]imidazol-5-yl)propanamide]	–	–	–	95	94	74	34
NC(=O)CC(NCc1ccc(-c2cncnc2)cc1)c1ccc2c(c1)nc(-c1ccc(N(CCO)CCO)cc1)n2Cc1ccc(OC(F)(F)F)cc1 (stereo not drawn) [LLS51, 3-(2-(4-(bis(2-hydroxyethyl)amino)phenyl)-1-(4-(trifluoromethoxy)benzyl)-1H-benzo[d]imidazol-5-yl)-3-((4-(pyrimidin-5-yl)benzyl)amino)propanamide]	–	–	–	83	79	99	105
CC(=O)OCCN(CCO)c1ccc(-c2nc3cc(C(CC(N)=O)NCc4ccc(-c5ccn[nH]5)s4)ccc3n2CCCN(C)C)cc1 (stereo not drawn) [LLS66, 2-((4-(5-(1-(((5-(1H-pyrazol-5-yl)thiophen-2-yl)methyl)amino)-3-amino-3-oxopropyl)-1-(3-(dimethylamino)propyl)-1H-benzo[d]imidazol-2-yl)phenyl)(2-hydroxyethyl)amino)ethyl Acetate]	–	–	–	98	91	89	79
NC(=O)CC(NCC1CCCCC1)c1ccc2c(c1)nc(-c1ccc(N(CCO)CCO)cc1)n2Cc1ccc(OC(F)(F)F)cc1 (stereo not drawn) [LLS42, 3-(2-(4-(bis(2-hydroxyethyl)amino)phenyl)-1-(4-(trifluoromethoxy)benzyl)-1H-benzo[d]imidazol-5-yl)-3-((cyclohexylmethyl)amino)propanamide]	–	–	–	95	92	49	0
COc1cccc(Cn2c(-c3ccc(N(CCO)CCO)cc3)nc3cc(C(CC(N)=O)NCc4ccc5[nH]ncc5c4)ccc32)c1 (stereo not drawn) [LLS59, 3-(((1H-indazol-5-yl)methyl)amino)-3-(2-(4-(bis(2-hydroxyethyl)amino)phenyl)-1-(3-methoxybenzyl)-1H-benzo[d]imidazol-5-yl)propanamide]	–	–	–	83	97	90	91
COc1ccc(CCn2c(-c3ccc(N(CCOC(C)=O)CCOC(C)=O)cc3)nc3cc(C(CC(N)=O)NCc4ccc5[nH]ncc5c4)ccc32)cc1 (stereo not drawn) [LLS53Ac, ((4-(5-(1-(((1H-indazol-5-yl)methyl)amino)-3-amino-3-oxopropyl)-1-(4-methoxyphenethyl)-1H-benzo[d]imidazol-2-yl)phenyl)azanediyl)bis(ethane-2,1-diyl) Diacetate]	–	–	–	97	94	99	101
NC(=O)CC(NCc1cccc2ccccc12)c1ccc2c(c1)nc(-c1ccc(N(CCO)CCO)cc1)n2Cc1ccc(OC(F)(F)F)cc1 (stereo not drawn) [LLS63, 3-(2-(4-(bis(2-hydroxyethyl)amino)phenyl)-1-(4-(trifluoromethoxy)benzyl)-1H-benzo[d]imidazol-5-yl)-3-((naphthalen-1-ylmethyl)amino)propanamide]	–	–	–	80	86	29	0
COc1ccc(CCn2c(-c3ccc(N(CCOC(C)=O)CCOC(C)=O)cc3)nc3cc(C(CC(N)=O)NCC4CCCCC4)ccc32)cc1 (stereo not drawn) [LLS56Ac, ((4-(5-(3-amino-1-((cyclohexylmethyl)amino)-3-oxopropyl)-1-(4-methoxyphenethyl)-1H-benzo[d]imidazol-2-yl)phenyl)azanediyl)bis(ethane-2,1-diyl) Diacetate]	–	–	–	85	93	92	55
CC(=O)OCCN(CCOC(C)=O)c1ccc(-c2nc3cc(C(CC(N)=O)NCc4cccn4S(=O)(=O)c4ccccc4)ccc3n2CCCN2CCCCC2)cc1 (stereo not drawn) [LLS52Ac, ((4-(5-(3-amino-3-oxo-1-(((1-(phenylsulfonyl)-1H-pyrrol-2-yl)methyl)amino)propyl)-1-(3-(piperidin-1-yl)propyl)-1H-benzo[d]imidazol-2-yl)phenyl)azanediyl)bis(ethane-2,1-diyl) Diacetate]	–	–	–	91	96	94	91
NCCCn1c(-c2ccc(N(CCO)CCO)cc2)nc2cc(C(CC(N)=O)NCc3ccc(C4CC=NN4)s3)ccc21 (stereo not drawn) [LLS54, 3-(1-(3-aminopropyl)-2-(4-(bis(2-hydroxyethyl)amino)phenyl)-1H-benzo[d]imidazol-5-yl)-3-(((5-(4,5-dihydro-1H-pyrazol-5-yl)thiophen-2-yl)methyl)amino)propanamide]	–	–	–	90	86	105	87
NC(=O)CC(NCc1ccc(-c2ccncc2)cc1)c1ccc2c(c1)nc(-c1ccc(N(CCO)CCO)cc1)n2CCCn1ccnc1 (stereo not drawn) [LLS58, 3-(1-(3-(1H-imidazol-1-yl)propyl)-2-(4-(bis(2-hydroxyethyl)amino)phenyl)-1H-benzo[d]imidazol-5-yl)-3-((4-(pyridin-4-yl)benzyl)amino)propanamide]	–	–	–	92	84	81	74
CC(=O)OCCN(CCOC(C)=O)c1ccc(-c2nc3cc(C(CC(N)=O)NCc4ccc(Br)s4)ccc3n2CCN)cc1 (stereo not drawn) [LLS45Ac, ((4-(5-(3-amino-1-(((5-bromothiophen-2-yl)methyl)amino)-3-oxopropyl)-1-(2-aminoethyl)-1H-benzo[d]imidazol-2-yl)phenyl)azanediyl)bis(ethane-2,1-diyl) Diacetate]	–	–	–	98	98	98	91
NC(=O)CC(NCC1CCCCC1)c1ccc2c(c1)nc(-c1ccc(N3CCOCC3)cc1)n2Cc1ccc(OC(F)(F)F)cc1 (stereo not drawn) [LLS80, 3-((cyclohexylmethyl)amino)-3-(2-(4-morpholinophenyl)-1-(4-(trifluoromethoxy)benzyl)-1H-benzo[d]imidazol-5-yl)propanamide]	–	–	–	86	25	6	0
